Source: ChEMBL document CHEMBL1148788 (J Med Chem, 2007)

What was measured:
[1] = target: T1, Neuronal acetylcholine receptor; alpha3/beta4 (Rattus norvegicus, UniProt P04757+P12392); assay: Displacement of [3H]epibatidine from recombinant rat alpha-3-beta-4 nAChr in HEK293 cell line; format: cell-based; conditions: for pKi: hek293
[2] = target: T2, 5-hydroxytryptamine receptor 3A (Homo sapiens, UniProt P46098); assay: Displacement of [3H]GR65630 from human 5HT3A receptor in HEK293 cells; format: cell-based; conditions: for pKi: hek293
T2 sequence (P46098 whole entry): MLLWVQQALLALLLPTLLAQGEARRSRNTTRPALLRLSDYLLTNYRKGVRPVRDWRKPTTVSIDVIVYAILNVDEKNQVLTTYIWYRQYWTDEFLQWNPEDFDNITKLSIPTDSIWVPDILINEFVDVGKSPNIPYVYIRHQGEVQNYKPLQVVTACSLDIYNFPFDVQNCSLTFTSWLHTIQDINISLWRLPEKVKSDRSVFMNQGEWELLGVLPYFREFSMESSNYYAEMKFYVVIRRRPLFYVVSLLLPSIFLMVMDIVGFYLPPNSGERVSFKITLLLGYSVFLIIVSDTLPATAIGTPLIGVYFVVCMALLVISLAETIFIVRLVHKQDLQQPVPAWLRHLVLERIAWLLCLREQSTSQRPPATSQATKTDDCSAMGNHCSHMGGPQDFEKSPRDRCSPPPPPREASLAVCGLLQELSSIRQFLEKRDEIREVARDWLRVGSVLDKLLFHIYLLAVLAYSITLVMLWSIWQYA

[3] = target: T3, Neuronal acetylcholine receptor subunit alpha-7 (Homo sapiens, UniProt P36544); assay: Displacement of [3H]methyllycaconitine from human alpha-7 in tsA201 cells coexpressed with 5HT3A receptor; format: cell-based
T3 sequence (P36544 whole entry): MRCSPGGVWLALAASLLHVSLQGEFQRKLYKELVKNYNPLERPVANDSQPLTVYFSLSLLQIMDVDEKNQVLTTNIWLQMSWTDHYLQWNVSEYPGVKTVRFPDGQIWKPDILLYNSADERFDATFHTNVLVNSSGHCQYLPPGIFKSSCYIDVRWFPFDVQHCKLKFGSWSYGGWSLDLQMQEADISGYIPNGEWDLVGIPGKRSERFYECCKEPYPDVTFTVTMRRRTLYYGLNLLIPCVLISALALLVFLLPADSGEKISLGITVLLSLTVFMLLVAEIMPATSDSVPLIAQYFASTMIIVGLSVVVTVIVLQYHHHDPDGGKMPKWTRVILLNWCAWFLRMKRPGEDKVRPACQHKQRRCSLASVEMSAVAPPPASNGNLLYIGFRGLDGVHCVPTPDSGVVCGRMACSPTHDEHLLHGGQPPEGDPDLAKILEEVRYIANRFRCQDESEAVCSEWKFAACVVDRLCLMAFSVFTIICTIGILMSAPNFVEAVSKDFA

[4] = target: T3, Neuronal acetylcholine receptor subunit alpha-7; assay: Antagonist activity at human alpha-7 nAChR in tsA201 cells coexpressed with Ric3 by FMP assay; format: functional, cell-based
[5] = target: T1, Neuronal acetylcholine receptor; alpha3/beta4; assay: Antagonist activity at rat alpha3beta4 nAChR expressed in HEK293 cells by FMP assay; format: functional, cell-based, Homo sapiens; conditions: for pIC50: hek293
[6] = target: T2, 5-hydroxytryptamine receptor 3A; assay: Antagonist activity at human 5HT3A receptor expressed in HEK293 cells by FMP assay; format: functional, cell-based; conditions: for IC50: read-out: IC50; for pIC50: hek293
[7] = target: Neuronal acetylcholine receptor; alpha4/beta2 (Rattus norvegicus, UniProt P09483+P12390); assay: Displacement of [3H]epibatidine from rat recombinant alpha-4-beta-2 nAChR in HEK293 cell line; format: cell-based; conditions: for pKi: hek293; for Ki: read-out: Ki
Chain of Neuronal acetylcholine receptor; alpha4/beta2 (P09483 whole entry): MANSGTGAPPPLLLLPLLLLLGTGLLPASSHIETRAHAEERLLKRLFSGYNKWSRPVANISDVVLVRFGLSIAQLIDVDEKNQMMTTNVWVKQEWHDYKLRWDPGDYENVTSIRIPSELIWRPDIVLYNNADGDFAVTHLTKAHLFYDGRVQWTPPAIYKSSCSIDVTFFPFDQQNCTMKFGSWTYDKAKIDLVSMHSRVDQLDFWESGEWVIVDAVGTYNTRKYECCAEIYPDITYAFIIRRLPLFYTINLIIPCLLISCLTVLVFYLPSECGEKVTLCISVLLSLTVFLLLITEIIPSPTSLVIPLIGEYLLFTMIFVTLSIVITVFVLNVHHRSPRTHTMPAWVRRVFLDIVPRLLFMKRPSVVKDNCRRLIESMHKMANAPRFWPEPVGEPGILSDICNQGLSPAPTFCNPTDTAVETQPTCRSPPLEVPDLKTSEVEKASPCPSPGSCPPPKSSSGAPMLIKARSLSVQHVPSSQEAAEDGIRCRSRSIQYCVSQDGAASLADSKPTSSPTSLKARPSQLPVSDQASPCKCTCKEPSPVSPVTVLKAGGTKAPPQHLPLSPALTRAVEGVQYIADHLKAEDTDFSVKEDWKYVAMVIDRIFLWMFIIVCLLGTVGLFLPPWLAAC
Chain of Neuronal acetylcholine receptor; alpha4/beta2 (P12390 whole entry): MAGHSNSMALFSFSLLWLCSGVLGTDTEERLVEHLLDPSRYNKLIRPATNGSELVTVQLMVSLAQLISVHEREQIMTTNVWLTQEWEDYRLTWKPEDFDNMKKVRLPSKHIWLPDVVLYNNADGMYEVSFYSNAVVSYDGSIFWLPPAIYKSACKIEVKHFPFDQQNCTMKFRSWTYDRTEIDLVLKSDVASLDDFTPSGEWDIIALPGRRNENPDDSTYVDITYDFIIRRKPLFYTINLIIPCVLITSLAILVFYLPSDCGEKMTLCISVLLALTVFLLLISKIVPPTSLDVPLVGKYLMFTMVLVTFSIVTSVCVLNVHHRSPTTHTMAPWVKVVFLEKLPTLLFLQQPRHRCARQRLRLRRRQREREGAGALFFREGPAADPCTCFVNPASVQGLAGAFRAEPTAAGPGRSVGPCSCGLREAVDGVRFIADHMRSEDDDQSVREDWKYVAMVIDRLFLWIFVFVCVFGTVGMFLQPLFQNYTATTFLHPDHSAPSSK

[8] = target: T4, Glycine receptor subunit alpha-1 (Homo sapiens, UniProt P23415); assay: Antagonist activity at human glycine alpha-1 receptor in HEK293 cells by FMP assay; format: functional, cell-based; conditions: for pIC50: hek293
T4 sequence (P23415 whole entry): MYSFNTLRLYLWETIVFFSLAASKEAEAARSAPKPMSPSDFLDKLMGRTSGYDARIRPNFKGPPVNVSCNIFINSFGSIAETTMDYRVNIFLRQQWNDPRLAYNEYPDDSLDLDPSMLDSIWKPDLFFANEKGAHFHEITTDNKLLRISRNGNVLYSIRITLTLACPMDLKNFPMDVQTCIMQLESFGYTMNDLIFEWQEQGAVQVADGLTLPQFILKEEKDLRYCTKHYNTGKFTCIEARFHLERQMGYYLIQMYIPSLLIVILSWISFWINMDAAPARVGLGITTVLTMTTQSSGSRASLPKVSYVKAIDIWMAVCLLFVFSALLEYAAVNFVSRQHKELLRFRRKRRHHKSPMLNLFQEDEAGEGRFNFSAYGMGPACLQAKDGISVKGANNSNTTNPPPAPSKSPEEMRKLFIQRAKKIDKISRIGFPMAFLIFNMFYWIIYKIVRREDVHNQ

[9] = target: T3, Neuronal acetylcholine receptor subunit alpha-7; assay: Displacement of [3H]methyllycaconitine from alpha7 nAChR in tsA201 cells co-expressed with Ric3; format: cell-based
[10] = target: Neuronal acetylcholine receptor; alpha4/beta4 (Rattus norvegicus, UniProt P09483+P12392); assay: Displacement of [3H]epibatidine from recombinant rat alpha-4-beta-4 nAChr in HEK293 cell line; format: cell-based; conditions: for pKi: hek293
Chain of Neuronal acetylcholine receptor; alpha4/beta4 (P09483 whole entry): as the sequence (P09483 whole entry) above
Chain of Neuronal acetylcholine receptor; alpha4/beta4 (P12392 whole entry): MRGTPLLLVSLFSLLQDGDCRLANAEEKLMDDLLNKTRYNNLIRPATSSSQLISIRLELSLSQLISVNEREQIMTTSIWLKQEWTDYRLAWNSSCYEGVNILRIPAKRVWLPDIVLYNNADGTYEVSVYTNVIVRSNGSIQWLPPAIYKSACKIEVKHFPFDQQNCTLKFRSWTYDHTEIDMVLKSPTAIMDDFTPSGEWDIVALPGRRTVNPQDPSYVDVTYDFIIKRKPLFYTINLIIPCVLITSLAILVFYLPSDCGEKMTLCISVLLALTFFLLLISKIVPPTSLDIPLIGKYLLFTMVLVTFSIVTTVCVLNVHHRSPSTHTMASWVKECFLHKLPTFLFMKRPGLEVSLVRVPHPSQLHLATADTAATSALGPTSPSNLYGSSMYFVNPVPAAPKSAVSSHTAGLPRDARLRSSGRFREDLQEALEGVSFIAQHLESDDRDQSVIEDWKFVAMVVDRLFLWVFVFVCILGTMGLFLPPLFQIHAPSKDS

cells = format: functional, cell-based; conditions: Homo sapiens, HEK293

T1 sequence (P04757 whole entry): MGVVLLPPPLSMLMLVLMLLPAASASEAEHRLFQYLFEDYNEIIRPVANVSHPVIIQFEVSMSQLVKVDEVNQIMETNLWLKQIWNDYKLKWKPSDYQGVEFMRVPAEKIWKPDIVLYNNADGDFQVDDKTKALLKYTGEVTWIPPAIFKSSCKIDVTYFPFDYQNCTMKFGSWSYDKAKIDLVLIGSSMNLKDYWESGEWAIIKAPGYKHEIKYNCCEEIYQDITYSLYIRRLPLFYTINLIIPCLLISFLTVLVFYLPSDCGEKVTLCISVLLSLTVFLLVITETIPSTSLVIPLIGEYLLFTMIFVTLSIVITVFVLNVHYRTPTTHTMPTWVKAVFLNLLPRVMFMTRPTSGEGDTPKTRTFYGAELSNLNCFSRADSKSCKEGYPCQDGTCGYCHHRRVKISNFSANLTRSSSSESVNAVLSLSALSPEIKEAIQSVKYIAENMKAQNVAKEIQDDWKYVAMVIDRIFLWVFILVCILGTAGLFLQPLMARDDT
T1 sequence (P12392 whole entry): as the sequence (P12392 whole entry) above

Row | SMILES | Ki [1] [µM] | pKi [1] | Ki [2] [µM] | Ki ([3]; read-out: Ki) [µM] | IC50 ([4]; read-out: IC50) [µM] | IC50 ([4]; read-out: pIC50 (converted)) [µM] | IC50 ([5]; read-out: IC50) [µM] | IC50 [6] [µM] | pKi [7] | Ki [7] [µM] | IC50 [8] [µM] | pIC50 [8] | Ki ([9]; read-out: Ki) [µM] | Ki ([9]; read-out: pKi (converted)) [µM] | Ki [10] [µM] | pKi [10] | IC50 (cells; read-out: IC50) [µM] | IC50 (cells; read-out: pIC50 (converted)) [µM] | pKi [2] | Ki ([3]; read-out: pKi (converted)) [µM] | also measured
1 | C=CC[N+]12CC[C@@H]3[C@@H]4[C@@H]5[C@@H](OCC=C(C1)[C@@H]5C[C@@H]32)N1c2ccccc2[C@@]23CCN5CC6=CCO[C@H]([C@@H]([C@H]12)[C@H]6C[C@H]53)N4c1ccccc1.[Br-] (stereo partly specified) | > 100 | < 4 | 19 | 0.071 | 0.34 | 0.339 | 30 | 30 | < 4 | > 100 | > 100 | < 4 | 0.055 | 0.0501 | > 100 | < 4 | > 100 | > 100 |  |  | 
2 | C=CC[N+]12CC[C@@]34c5ccccc5N5/C=C6/[C@H]7C[C@H]8[C@@]9(CC[N@@+]8(CC=C)C/C7=C/CO)c7ccccc7N(/C=C(/[C@@H](C[C@@H]31)/C(=C\CO)C2)[C@H]54)[C@@H]69 (stereo partly specified) | 3.2 |  | > 100 | 2.1 | 4.1 | 4.07 | 18 | > 100 | < 4 | > 100 | > 100 | < 4 | 1.1 | 1 | > 100 | < 4 | > 100 | > 100 | < 4 | 2 | IC50 ([5]; read-out: pIC50 (converted)): 15.8 µM; pIC50 [6]: < 4
3 | CN(C)Cc1c2n(c3ccccc13)Cc1c(CN(C)C)c3ccccc3n1C2 | > 100 | < 4 | > 100 | 19 |  |  |  |  | < 4 | > 100 |  |  | 5.4 | 5.01 | > 100 | < 4 |  |  | < 4 | 20 | 
4 | C[N+]12CCC34c5ccccc5N5/C=C6/[C@H]7C[C@H]8[C@@]9(CC[N+]8(C)C/C7=C/CO)c7ccccc7N(/C=C(/[C@@H](C[C@@H]31)/C(=C\CO)C2)[C@H]54)[C@@H]69.[Cl-].[Cl-] (stereo partly specified) [TOXIFERINE] | 30 |  | > 100 | 1.6 | 9.5 | 9.55 | 30 | > 100 | < 4 | > 100 | > 100 | < 4 | 2.6 | 2.51 | > 100 | < 4 | > 100 | > 100 | < 4 | 1.58 | pIC50 [6]: < 4
5 | Brc1ccc(C[N+]23CC[C@@H]4[C@@H]5[C@@H]6[C@@H](OCC=C(C2)[C@@H]6C[C@@H]43)N2c3ccccc3[C@@]34CC[N+]6(Cc7ccc(Br)cc7)CC7=CCO[C@H]([C@@H]([C@H]23)[C@H]7C[C@@H]46)N5c2ccccc2)cc1.[Br-].[Br-] (stereo partly specified) | > 100 | < 4 | 5.7 | 0.26 | 10 | 10.5 | > 100 | 30 | < 4 | > 100 | > 100 | < 4 | 0.64 | 0.631 | > 100 | < 4 | > 100 | > 100 |  | 0.251 | pIC50 [5]: < 4
6 | C1=C2C[N+]3(Cc4ccccc4)CC[C@@H]4[C@@H]5[C@H]([C@@H](OC1)N1c6ccccc6[C@@]67CC[N+]8(Cc9ccccc9)CC9=CCO[C@H]([C@@H]([C@H]16)[C@H]9C[C@@H]78)N5c1ccccc1)[C@H]2C[C@@H]43.[Br-].[Br-] (stereo partly specified) | > 100 | < 4 | 100 | 0.2 | 4.5 | 4.47 | > 100 | 100 | < 4 | > 100 | > 100 | < 4 | 0.25 | 0.251 | > 100 | < 4 | > 100 | > 100 |  | 0.2 | pIC50 [5]: < 4
7 | C1=C2C[N+]3(Cc4ccc5ccccc5c4)CC[C@@H]4[C@@H]5[C@H]([C@@H](OC1)N1c6ccccc6[C@@]67CC[N+]8(Cc9ccc%10ccccc%10c9)CC9=CCO[C@H]([C@@H]([C@H]16)[C@H]9C[C@@H]78)N5c1ccccc1)[C@H]2C[C@@H]43 (stereo partly specified) |  |  |  | 0.36 |  |  |  |  |  |  |  |  | 0.71 | 0.631 |  |  |  |  |  | 0.316 | 
8 | C[N+](C)(Cc1ccc([N+](=O)[O-])cc1)Cc1c2n(c3ccccc13)Cc1c(C[N+](C)(C)Cc3ccc([N+](=O)[O-])cc3)c3ccccc3n1C2.[Br-].[Br-] | > 100 | < 4 | > 100 | 2.1 | 30 | 100 | > 100 | 30 | < 4 | > 100 | > 100 | < 4 | 3.9 | 3.98 | > 100 | < 4 | > 100 | > 100 | < 4 | 2 | pIC50 [5]: < 4
